Measurements as given in patent EP4592286A1, “MACROCYCLIC NITROGEN-CONTAINING CROWN ETHER COMPOUND AND USE THEREOF AS PROTEIN KINASE INHIBITOR” (Artivila Biopharma, priority 2022, dated 2024).

Columns and labels:
[1] = test system: Mia Paca-2 cells; test: CDK9 cell activity test (Cell Titer-GLO cell growth inhibition), Mia Paca-2; format: cell-based; conditions: Homo sapiens, 72 hours
Description: In these experiments, the cell line MV-4-11 was cultured in IMDM culture solution (containing 100 U/mL penicillin and 0.1 g/L streptomycin), the cell line HCC1187 was cultured in RPMI-1640 culture solution (containing 100 U/mL penicillin and 0.1 g/L streptomycin) containing 10% fetal bovine serum, the cell line Mia Paca-2 was cultured in DMEM (containing 100 U/mL penicillin and 0.1 g/L streptomycin) containing 10% fetal bovine serum and 2.5% horse serum, and the cell line A375 was cultured in RPMI-1640 culture solution (containing 100 U/mL penicillin and 0.1 g/L streptomycin) containing 10% fetal bovine serum. All cells were cultured in a saturated humidity incubator with 37 °C and 5% CO2.
When MV-4-11 cells, HCC-1187 cells, Mia Paca-2 cells and A375 cells grew to 80% -90% confleuncy, they were digested with trypsin, resuspended, counted and diluted to a certain cell density with complete medium, and inoculated into 96-well plate at 100 µL/well. […] The cells were lysed by mixing evenly for 2 minutes using a shaker, incubated at room temperature for 60 minutes to stabilize the chemiluminescence signal, and the chemiluminescence was read by PE EnVision microtiter plate reader. The cell growth inhibition rate Inh%=(DMSO well - compound treatment well)/(DMSO well - background well)×100 was calculated, and the cell growth IC50 value was obtained by fitting with GraphPad Prism 5 .

[2] = target: CDK9 (Homo sapiens, UniProt P50750); test: experiment of inhibiting kinase activity (Caliper mobility shift assay), CDK9; format: biochemical
Sequence of CDK9 (P50750 whole entry): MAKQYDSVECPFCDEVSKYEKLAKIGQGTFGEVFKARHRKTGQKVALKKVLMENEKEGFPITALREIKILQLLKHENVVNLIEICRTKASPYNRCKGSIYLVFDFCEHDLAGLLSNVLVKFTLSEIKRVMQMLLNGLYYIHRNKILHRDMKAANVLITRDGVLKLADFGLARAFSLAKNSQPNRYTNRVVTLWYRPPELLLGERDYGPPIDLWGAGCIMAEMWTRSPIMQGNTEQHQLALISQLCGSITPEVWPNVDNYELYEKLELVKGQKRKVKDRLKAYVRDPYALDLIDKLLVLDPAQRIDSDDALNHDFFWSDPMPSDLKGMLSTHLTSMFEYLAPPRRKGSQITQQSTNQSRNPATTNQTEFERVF
Sequence of CDK9 (O60563 whole entry partner): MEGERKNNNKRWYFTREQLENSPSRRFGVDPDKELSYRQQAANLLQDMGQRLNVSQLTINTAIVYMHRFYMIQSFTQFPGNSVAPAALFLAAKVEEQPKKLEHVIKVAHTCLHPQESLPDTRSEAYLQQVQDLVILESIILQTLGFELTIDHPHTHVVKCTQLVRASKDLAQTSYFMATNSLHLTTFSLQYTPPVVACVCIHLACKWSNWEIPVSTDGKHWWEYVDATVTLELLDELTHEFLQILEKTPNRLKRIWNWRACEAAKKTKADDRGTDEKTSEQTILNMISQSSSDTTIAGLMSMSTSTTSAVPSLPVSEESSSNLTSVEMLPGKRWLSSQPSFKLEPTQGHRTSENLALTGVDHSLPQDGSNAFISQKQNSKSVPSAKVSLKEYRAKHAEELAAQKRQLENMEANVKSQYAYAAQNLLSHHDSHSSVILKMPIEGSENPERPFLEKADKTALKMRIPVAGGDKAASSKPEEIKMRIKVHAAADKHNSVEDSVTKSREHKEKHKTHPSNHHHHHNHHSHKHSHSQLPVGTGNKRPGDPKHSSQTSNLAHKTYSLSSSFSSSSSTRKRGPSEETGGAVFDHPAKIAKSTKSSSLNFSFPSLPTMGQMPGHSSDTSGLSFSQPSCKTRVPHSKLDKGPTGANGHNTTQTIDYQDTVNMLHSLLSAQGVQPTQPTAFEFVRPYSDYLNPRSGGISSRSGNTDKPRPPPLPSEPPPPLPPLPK
Method in brief: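 Inhibition is measured as reduced conversion of substrate by the kinase, separated by microfluidic mobility shift after a room-temperature reaction started with ATP/substrate following a 10-min compound preincubation. Test doses are 10 nM, 100 nM, or a 10-point 3-fold series from 10 µM.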

[3] = target: T1, wild-type LRRK2 (Homo sapiens, UniProt Q5S007); test: detection of phosphorylated S935 in HEK293T overexpressing wild-type LRRK2; format: cell-based; conditions: pS935, HEK293T overexpressing wild-type LRRK2, 1.5 hours
T1 construct: pCMV-flag-WT LRRK2 (full-length); expressed in transfected cells; host or cells: HEK293T
T1 sequence (Q5S007 whole entry): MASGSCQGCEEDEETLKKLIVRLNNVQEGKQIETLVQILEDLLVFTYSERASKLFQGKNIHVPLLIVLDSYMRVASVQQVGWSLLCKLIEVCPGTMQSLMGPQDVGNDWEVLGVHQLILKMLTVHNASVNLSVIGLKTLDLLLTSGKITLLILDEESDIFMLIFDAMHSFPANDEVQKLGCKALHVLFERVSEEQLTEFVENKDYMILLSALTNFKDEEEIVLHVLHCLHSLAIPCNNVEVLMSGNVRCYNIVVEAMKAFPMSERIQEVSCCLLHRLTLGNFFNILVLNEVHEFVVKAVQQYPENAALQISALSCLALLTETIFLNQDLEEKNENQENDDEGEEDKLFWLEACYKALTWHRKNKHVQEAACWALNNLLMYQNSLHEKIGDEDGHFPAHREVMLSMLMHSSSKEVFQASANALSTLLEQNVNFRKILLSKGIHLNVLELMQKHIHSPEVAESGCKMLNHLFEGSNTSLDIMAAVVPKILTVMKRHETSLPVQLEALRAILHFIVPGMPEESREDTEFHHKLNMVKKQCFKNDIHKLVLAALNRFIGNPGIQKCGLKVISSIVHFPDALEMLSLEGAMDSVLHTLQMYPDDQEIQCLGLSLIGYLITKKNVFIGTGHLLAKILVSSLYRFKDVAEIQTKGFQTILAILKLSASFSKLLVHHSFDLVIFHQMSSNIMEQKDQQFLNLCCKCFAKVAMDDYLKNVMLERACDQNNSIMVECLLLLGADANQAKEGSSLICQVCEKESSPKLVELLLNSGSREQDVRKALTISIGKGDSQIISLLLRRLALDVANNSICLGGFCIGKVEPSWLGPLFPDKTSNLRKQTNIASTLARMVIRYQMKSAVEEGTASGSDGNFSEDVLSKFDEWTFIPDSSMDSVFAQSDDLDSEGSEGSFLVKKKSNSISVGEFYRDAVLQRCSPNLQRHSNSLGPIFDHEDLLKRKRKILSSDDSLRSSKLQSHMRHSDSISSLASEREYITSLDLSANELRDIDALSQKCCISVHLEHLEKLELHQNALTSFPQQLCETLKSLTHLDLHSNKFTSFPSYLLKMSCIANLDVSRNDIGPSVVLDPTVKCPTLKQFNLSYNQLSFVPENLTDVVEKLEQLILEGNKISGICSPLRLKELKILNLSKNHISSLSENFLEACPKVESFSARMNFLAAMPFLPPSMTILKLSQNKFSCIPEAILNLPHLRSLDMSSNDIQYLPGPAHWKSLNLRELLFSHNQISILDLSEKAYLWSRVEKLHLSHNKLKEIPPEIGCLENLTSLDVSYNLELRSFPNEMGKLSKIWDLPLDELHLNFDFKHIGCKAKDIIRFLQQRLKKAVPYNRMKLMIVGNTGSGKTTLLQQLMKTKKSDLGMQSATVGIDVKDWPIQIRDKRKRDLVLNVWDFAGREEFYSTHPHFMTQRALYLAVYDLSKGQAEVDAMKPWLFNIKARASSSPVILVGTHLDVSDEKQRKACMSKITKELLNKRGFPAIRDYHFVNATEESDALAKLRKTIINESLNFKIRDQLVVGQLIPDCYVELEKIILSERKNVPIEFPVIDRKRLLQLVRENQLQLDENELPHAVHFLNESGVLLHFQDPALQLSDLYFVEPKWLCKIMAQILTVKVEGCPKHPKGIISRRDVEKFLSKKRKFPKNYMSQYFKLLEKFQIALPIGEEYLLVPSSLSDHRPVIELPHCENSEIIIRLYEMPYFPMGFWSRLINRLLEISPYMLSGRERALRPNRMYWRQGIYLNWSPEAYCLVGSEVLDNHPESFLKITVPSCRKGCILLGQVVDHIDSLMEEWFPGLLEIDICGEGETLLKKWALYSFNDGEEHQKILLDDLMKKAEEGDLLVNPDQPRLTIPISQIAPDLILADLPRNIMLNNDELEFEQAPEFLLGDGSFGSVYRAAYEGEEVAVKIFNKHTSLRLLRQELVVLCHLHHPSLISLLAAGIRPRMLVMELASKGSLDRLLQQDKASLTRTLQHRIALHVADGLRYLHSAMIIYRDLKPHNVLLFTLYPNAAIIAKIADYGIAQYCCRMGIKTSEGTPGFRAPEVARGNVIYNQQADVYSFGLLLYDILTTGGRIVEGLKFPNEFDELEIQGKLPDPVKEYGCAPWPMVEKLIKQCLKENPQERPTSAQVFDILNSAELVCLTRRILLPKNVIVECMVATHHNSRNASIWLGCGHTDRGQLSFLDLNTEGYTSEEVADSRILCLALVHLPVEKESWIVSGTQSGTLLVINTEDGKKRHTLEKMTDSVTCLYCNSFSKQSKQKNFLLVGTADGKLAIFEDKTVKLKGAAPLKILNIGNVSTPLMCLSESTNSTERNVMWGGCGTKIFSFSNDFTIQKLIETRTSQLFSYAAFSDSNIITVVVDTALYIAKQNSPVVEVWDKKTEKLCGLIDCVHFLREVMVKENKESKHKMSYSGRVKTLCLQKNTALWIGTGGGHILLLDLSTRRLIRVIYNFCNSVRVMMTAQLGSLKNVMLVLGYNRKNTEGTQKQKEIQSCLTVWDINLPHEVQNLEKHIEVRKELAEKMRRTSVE
Description: Detection of phosphorylated S935 in HEK293T Overexpressing full-length LRRK2 (G2019S) or wild-type LRRK2
HEK293T cells was inoculated into a 6-well plate and cultured overnight. The next day, they were transiently transfected with plasmid pcDNA5-FRT/TO-FLAG LRRK2 (G2019S, full-length) or pCMV-flag-WT LRRK2 (full-length) by using Superfect transfection reagent and cultured at 37°C and 5% CO2 for 20-24 hours. The next day, cells were collected, resuspended at a density of 0.48×10^6 cells/ml, and inoculated into a 384-well plate at 50 microliters/well. Compound or DMSO solutions (volume ratio of 0.5%) were added by Tecan, and cultured at 37°C and 5% CO2 for 1.5 hours. After 1.5 hours, the supernatant was discarded, 50 microliters of 8% PFA were added in each well to fix the cells, and the cells were incubated at room temperature for 1 hour. The plate was washed with EL406 plate washer for three times, with 115 microliters of PBST per well, and the culture plate was patted to dryness. The cells were blocked with 50 microliters/well of Licor Odyssey blocking solution (0.1% Tween 20) at room temperature for 1.5 hours. The blocking solution was discarded and the culture plate was patted to dryness. 20 microliters of primary antibody (1:1000(pS935), diluted with Licor Odyssey buffer (0.1% Tween20)) was added into each well, and incubated at 4 °C overnight. The next day, the first antibody was discarded and washing was performed with PBST for five times. 20 microliters of secondary antibody (diluted with Licor Odyssey buffer (0.1% Tween20) at 1:500 and stained with DNA at 1:2000) were added into each well, and incubated at room temperature for 1 hour. The second antibody was discarded, and washing was performed for three times with PBST. The fluorescence intensity was measured by LICOR Odyssey imager Scanner, and the data was analyzed.

In the case of `CN1CCOCCOc2cc(Nc3ncc(F)c(-c4ccc(C(=O)NCC#N)cc4)n3)ccc2OCC1` [Example 16, N-(cyanomethyl)-4-(5-fluoro-2-((7-methyl-2,3,6,7,8,9-hexahydro-5H-benzo[b][1,4,7]trioxa[10]azacyclododecan-13-yl)amino)pyrimidin-4-yl)benzamide], the IC50 [1] is reported as 100 to 1000 nM, the inhibition at 0.01 µM ([2]; at 10 nM, read-out: inhibition rate CDK9) is reported as 40 to 79% and the inhibition at 0.1 µM ([2]; at 100 nM, read-out: inhibition rate CDK9) is reported as > 80%. For the same molecule, the IC50 ([2]; kinase activity assay, Table 3) was < 50 nM.

For `CCS(=O)(=O)N1CC(CC#N)(n2cc(-c3nc(Nc4ccc5c(c4)OCCN(C)CCO5)nc4[nH]ccc34)cn2)C1` [Example 28, 2-(1-(ethylsulfonyl)-3-(4-(2-((4-methyl-3,4,5,6-tetrahydro-2H-benzo[b][1,4,7]dioxazolin-9-yl)amino)-7H-pyrrolo[2,3-d]pytimidin-4-yl)-1H-pyrazol-1-yl)azetidin-3-yl) acetonitrile], the EC50 [3] was < 500 nM.
